Reference: article PMC5418314, “First-in-human phase I study of SOR-C13, a TRPV6 calcium channel inhibitor, in patients with advanced solid tumors” (Investigational New Drugs, 2017)
Like-named read-outs stand apart in the source and are kept apart here. Ends that are not written are not given here.

Assays:
[1] = Phase I plasma pharmacokinetics; format: in vivo, human; details: human, plasma, iv, 90-min IV infusion, plasma LC-MS
Description: Blood samples were taken on Days 1, 3, 8 and 10 of Cycle 1 to assess the pharmacokinetic (PK) profile of SOR-C13 at the various doses used. Plasma samples for the IV 20 min infusion were taken at pre-infusion, 5, 15 min after the start of infusion and post-infusion at 2, 5, 10 and 30 min and 1, 4 h. Plasma samples for SOR-C13 analysis for the 90 min infusion were taken pre-infusion, at 5, 15 and 45 min after the start of infusion, and at 2, 5, 10 and 30 min post-infusion. Since the infusion for the majority of patients, and further studies will be IV 90 min only PK data for this infusion time are presented. Validated liquid chromatography-mass spectrometry analysis provided the plasma concentration/time data.

[2] = half-life in the blood compartment, mice; format: in vivo
hERG = hERG (Homo sapiens, UniProt Q12809); test: hERG channel activity; format: biochemical
Sequence of hERG (Q12809 whole entry): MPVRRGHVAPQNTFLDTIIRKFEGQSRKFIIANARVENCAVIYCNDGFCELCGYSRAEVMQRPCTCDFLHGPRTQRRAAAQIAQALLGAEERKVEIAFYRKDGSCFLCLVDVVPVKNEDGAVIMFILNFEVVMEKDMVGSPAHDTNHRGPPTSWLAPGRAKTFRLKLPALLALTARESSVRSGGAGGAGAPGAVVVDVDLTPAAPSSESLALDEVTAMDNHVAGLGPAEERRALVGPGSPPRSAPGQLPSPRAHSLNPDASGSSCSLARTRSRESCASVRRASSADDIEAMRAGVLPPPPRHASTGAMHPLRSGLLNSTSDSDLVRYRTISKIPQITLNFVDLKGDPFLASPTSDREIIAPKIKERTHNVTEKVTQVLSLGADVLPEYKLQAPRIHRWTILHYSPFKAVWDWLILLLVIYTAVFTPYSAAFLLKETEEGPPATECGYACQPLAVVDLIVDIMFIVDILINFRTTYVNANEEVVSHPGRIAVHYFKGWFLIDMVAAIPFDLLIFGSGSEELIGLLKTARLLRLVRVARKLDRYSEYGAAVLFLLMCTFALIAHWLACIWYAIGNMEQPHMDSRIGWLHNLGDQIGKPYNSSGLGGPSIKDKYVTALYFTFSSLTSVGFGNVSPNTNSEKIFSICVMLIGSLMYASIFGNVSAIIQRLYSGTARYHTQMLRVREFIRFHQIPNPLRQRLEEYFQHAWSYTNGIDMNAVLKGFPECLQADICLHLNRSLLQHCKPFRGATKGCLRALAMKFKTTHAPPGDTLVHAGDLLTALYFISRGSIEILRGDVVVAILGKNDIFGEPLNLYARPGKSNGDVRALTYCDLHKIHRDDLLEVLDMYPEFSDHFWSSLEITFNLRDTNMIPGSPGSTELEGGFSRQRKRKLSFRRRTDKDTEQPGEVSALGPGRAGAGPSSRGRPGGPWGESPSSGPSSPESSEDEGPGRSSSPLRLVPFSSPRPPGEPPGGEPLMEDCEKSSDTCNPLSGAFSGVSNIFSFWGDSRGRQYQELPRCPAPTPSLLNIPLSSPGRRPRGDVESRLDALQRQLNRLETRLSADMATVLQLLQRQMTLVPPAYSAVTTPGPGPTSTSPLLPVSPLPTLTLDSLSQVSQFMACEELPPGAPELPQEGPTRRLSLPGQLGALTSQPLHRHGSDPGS

Sequence: KEFLHPSKVDLPR [SOR-C13]
- Cmax ([1]; 2.75 mg/kg, Cohort 4: 2.75 mg/kg, N = 6, Cycle 1 Day 8, read-out: Peak plasma concentration, Median): 282 ng/mL
- Tmax ([1]; 2.75 mg/kg, Cohort 4: 2.75 mg/kg, N = 6, Cycle 1 Day 8, read-out: Time to peak plasma concentration, Mean (SD)): 21.6 min
- Tmax ([1]; 2.75 mg/kg, Cohort 4: 2.75 mg/kg, N = 6, Cycle 1 Day 8, read-out: Time to peak plasma concentration, Median): 15 min
- AUC(0-t) ([1]; 2.75 mg/kg, Cohort 4: 2.75 mg/kg, N = 6, Cycle 1 Day 10, read-out: AUCtau, Mean (SD)): 274 ng·h/mL
- AUC(0-t) ([1]; 2.75 mg/kg, Cohort 4: 2.75 mg/kg, N = 6, Cycle 1 Day 10, read-out: AUCtau, Median): 192 ng·h/mL
- Cmax ([1]; 2.75 mg/kg, Cohort 4: 2.75 mg/kg, N = 6, Cycle 1 Day 10, read-out: Peak plasma concentration, Mean (SD)): 290 ng/mL
- Cmax ([1]; 2.75 mg/kg, Cohort 4: 2.75 mg/kg, N = 6, Cycle 1 Day 10, read-out: Peak plasma concentration, Median): 232 ng/mL
- Tmax ([1]; 2.75 mg/kg, Cohort 4: 2.75 mg/kg, N = 6, Cycle 1 Day 10, read-out: Time to peak plasma concentration, Mean (SD)): 36.6 min
- Tmax ([1]; 2.75 mg/kg, Cohort 4: 2.75 mg/kg, N = 6, Cycle 1 Day 10, read-out: Time to peak plasma concentration, Median): 30 min
- AUC(0-t) ([1]; 4.13 mg/kg, Cohort 5: 4.13 mg/kg, N = 3, Cycle 1 Day 1, read-out: AUCtau, Mean (SD)): 78.4 ng·h/mL
- AUC(0-t) ([1]; 4.13 mg/kg, Cohort 5: 4.13 mg/kg, N = 3, Cycle 1 Day 1, read-out: AUCtau, Median): 23.4 ng·h/mL
- Cmax ([1]; 4.13 mg/kg, Cohort 5: 4.13 mg/kg, N = 3, Cycle 1 Day 1, read-out: Peak plasma concentration, Mean (SD)): 139 ng/mL
- Cmax ([1]; 4.13 mg/kg, Cohort 5: 4.13 mg/kg, N = 3, Cycle 1 Day 1, read-out: Peak plasma concentration, Median): 42 ng/mL
- Tmax ([1]; 4.13 mg/kg, Cohort 5: 4.13 mg/kg, N = 3, Cycle 1 Day 1, read-out: Time to peak plasma concentration, Mean (SD)): 25 min
- Tmax ([1]; 4.13 mg/kg, Cohort 5: 4.13 mg/kg, N = 3, Cycle 1 Day 1, read-out: Time to peak plasma concentration, Median): 15 min
- AUC(0-t) ([1]; 4.13 mg/kg, Cohort 5: 4.13 mg/kg, N = 3, Cycle 1 Day 3, read-out: AUCtau, Mean (SD)): 373 ng·h/mL
- AUC(0-t) ([1]; 4.13 mg/kg, Cohort 5: 4.13 mg/kg, N = 3, Cycle 1 Day 3, read-out: AUCtau, Median): 403 ng·h/mL
- Cmax ([1]; 4.13 mg/kg, Cohort 5: 4.13 mg/kg, N = 3, Cycle 1 Day 3, read-out: Peak plasma concentration, Mean (SD)): 369 ng/mL
- Cmax ([1]; 4.13 mg/kg, Cohort 5: 4.13 mg/kg, N = 3, Cycle 1 Day 3, read-out: Peak plasma concentration, Median): 403 ng/mL
- Tmax ([1]; 4.13 mg/kg, Cohort 5: 4.13 mg/kg, N = 3, Cycle 1 Day 3, read-out: Time to peak plasma concentration, Mean (SD)): 35 min
- Tmax ([1]; 4.13 mg/kg, Cohort 5: 4.13 mg/kg, N = 3, Cycle 1 Day 3, read-out: Time to peak plasma concentration, Median): 45 min
- AUC(0-t) ([1]; 4.13 mg/kg, Cohort 5: 4.13 mg/kg, N = 3, Cycle 1 Day 8, read-out: AUCtau, Mean (SD)): 197 ng·h/mL
- AUC(0-t) ([1]; 4.13 mg/kg, Cohort 5: 4.13 mg/kg, N = 3, Cycle 1 Day 8, read-out: AUCtau, Median): 245 ng·h/mL
- Cmax ([1]; 4.13 mg/kg, Cohort 5: 4.13 mg/kg, N = 3, Cycle 1 Day 8, read-out: Peak plasma concentration, Mean (SD)): 212 ng/mL
- Cmax ([1]; 4.13 mg/kg, Cohort 5: 4.13 mg/kg, N = 3, Cycle 1 Day 8, read-out: Peak plasma concentration, Median): 264 ng/mL
- Tmax ([1]; 4.13 mg/kg, Cohort 5: 4.13 mg/kg, N = 3, Cycle 1 Day 8, read-out: Time to peak plasma concentration, Mean (SD)): 18.2 min
- Tmax ([1]; 4.13 mg/kg, Cohort 5: 4.13 mg/kg, N = 3, Cycle 1 Day 8, read-out: Time to peak plasma concentration, Median): 4.8 min
- AUC(0-t) ([1]; 4.13 mg/kg, Cohort 5: 4.13 mg/kg, N = 3, Cycle 1 Day 10, read-out: AUCtau, Mean (SD)): 273 ng·h/mL
- AUC(0-t) ([1]; 4.13 mg/kg, Cohort 5: 4.13 mg/kg, N = 3, Cycle 1 Day 10, read-out: AUCtau, Median): 324 ng·h/mL
- Cmax ([1]; 4.13 mg/kg, Cohort 5: 4.13 mg/kg, N = 3, Cycle 1 Day 10, read-out: Peak plasma concentration, Mean (SD)): 280 ng/mL
- Cmax ([1]; 4.13 mg/kg, Cohort 5: 4.13 mg/kg, N = 3, Cycle 1 Day 10, read-out: Peak plasma concentration, Median): 295 ng/mL
- Tmax ([1]; 4.13 mg/kg, Cohort 5: 4.13 mg/kg, N = 3, Cycle 1 Day 10, read-out: Time to peak plasma concentration, Mean (SD)): 21.6 min
- AUC(0-t) ([1]; 6.2 mg/kg, Cohort 6: 6.2 mg/kg, N = 6, Cycle 1 Day 1, read-out: AUCtau, Mean (SD)): 1130 ng·h/mL
- AUC(0-t) ([1]; 6.2 mg/kg, Cohort 6: 6.2 mg/kg, N = 6, Cycle 1 Day 1, read-out: AUCtau, Median): 570 ng·h/mL
- Cmax ([1]; 6.2 mg/kg, Cohort 6: 6.2 mg/kg, N = 6, Cycle 1 Day 1, read-out: Peak plasma concentration, Mean (SD)): 1150 ng/mL
- Cmax ([1]; 6.2 mg/kg, Cohort 6: 6.2 mg/kg, N = 6, Cycle 1 Day 1, read-out: Peak plasma concentration, Median): 682 ng/mL
- Tmax ([1]; 6.2 mg/kg, Cohort 6: 6.2 mg/kg, N = 6, Cycle 1 Day 1, read-out: Time to peak plasma concentration, Mean (SD)): 56.6 min
- AUC(0-t) ([1]; 6.2 mg/kg, Cohort 6: 6.2 mg/kg, N = 6, Cycle 1 Day 3, read-out: AUCtau, Mean (SD)): 1100 ng·h/mL
- AUC(0-t) ([1]; 6.2 mg/kg, Cohort 6: 6.2 mg/kg, N = 6, Cycle 1 Day 3, read-out: AUCtau, Median): 904 ng·h/mL
- Cmax ([1]; 6.2 mg/kg, Cohort 6: 6.2 mg/kg, N = 6, Cycle 1 Day 3, read-out: Peak plasma concentration, Mean (SD)): 1020 ng/mL
- Cmax ([1]; 6.2 mg/kg, Cohort 6: 6.2 mg/kg, N = 6, Cycle 1 Day 3, read-out: Peak plasma concentration, Median): 843 ng/mL
- Tmax ([1]; 6.2 mg/kg, Cohort 6: 6.2 mg/kg, N = 6, Cycle 1 Day 3, read-out: Time to peak plasma concentration, Mean (SD)): 27.7 min
- Tmax ([1]; 6.2 mg/kg, Cohort 6: 6.2 mg/kg, N = 6, Cycle 1 Day 3, read-out: Time to peak plasma concentration, Median): 9.9 min
- AUC(0-t) ([1]; 6.2 mg/kg, Cohort 6: 6.2 mg/kg, N = 6, Cycle 1 Day 8, read-out: AUCtau, Mean (SD)): 1340 ng·h/mL
- AUC(0-t) ([1]; 6.2 mg/kg, Cohort 6: 6.2 mg/kg, N = 6, Cycle 1 Day 8, read-out: AUCtau, Median): 843 ng·h/mL
- Cmax ([1]; 6.2 mg/kg, Cohort 6: 6.2 mg/kg, N = 6, Cycle 1 Day 8, read-out: Peak plasma concentration, Mean (SD)): 1440 ng/mL
- Cmax ([1]; 6.2 mg/kg, Cohort 6: 6.2 mg/kg, N = 6, Cycle 1 Day 8, read-out: Peak plasma concentration, Median): 826 ng/mL
- Tmax ([1]; 6.2 mg/kg, Cohort 6: 6.2 mg/kg, N = 6, Cycle 1 Day 8, read-out: Time to peak plasma concentration, Mean (SD)): 45.8 min
- AUC(0-t) ([1]; 6.2 mg/kg, Cohort 6: 6.2 mg/kg, N = 6, Cycle 1 Day 10, read-out: AUCtau, Mean (SD)): 1430 ng·h/mL
- AUC(0-t) ([1]; 6.2 mg/kg, Cohort 6: 6.2 mg/kg, N = 6, Cycle 1 Day 10, read-out: AUCtau, Median): 830 ng·h/mL
- Cmax ([1]; 6.2 mg/kg, Cohort 6: 6.2 mg/kg, N = 6, Cycle 1 Day 10, read-out: Peak plasma concentration, Mean (SD)): 1380 ng/mL
- Cmax ([1]; 6.2 mg/kg, Cohort 6: 6.2 mg/kg, N = 6, Cycle 1 Day 10, read-out: Peak plasma concentration, Median): 794 ng/mL
- Tmax ([1]; 6.2 mg/kg, Cohort 6: 6.2 mg/kg, N = 6, Cycle 1 Day 10, read-out: Time to peak plasma concentration, Mean (SD)): 36.1 min
- Tmax ([1]; 6.2 mg/kg, Cohort 6: 6.2 mg/kg, N = 6, Cycle 1 Day 10, read-out: Time to peak plasma concentration, Median): 30 min
- half-life in the blood compartment [2]: < 5 min
- modulation of channel activity (hERG): no modulation of channel activity
